What was measured:
Assay in all cases: relative viability (nuclei count vs DMSO), 5 days (fraction); higher = more cells survive
[1] = compound: CCN1C(=O)C2=CC(=C(N=C2N(C1=O)C3CC3)N)C(=O)N + CC(=O)Nc1cccc(-n2c(=O)n(C3CC3)c(=O)c3c(Nc4ccc(I)cc4F)n(C)c(=O)c(C)c32)c1 [Trametinib] (partner 0.02 µM)
Summary of the method: (§1)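 Lung cancer cell lines, seeded in 1536-well plates, were treated the following day by pin tool with a single drug or with five library-drug doses (not always all listed) in √10 steps on top of a fixed anchor-drug dose. Cells were fixed and nuclei stained in one step after 5 days, and nuclei were counted. Relative viability is the nuclei count for treated wells divided by that for vehicle wells, reported as medians of duplicate plates.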

[2] = compound: CCN1C(=O)C2=CC(=C(N=C2N(C1=O)C3CC3)N)C(=O)N + O=C(CCCCCCC(=O)Nc1ccccc1)NO [Vorinostat] (partner 1 µM)
Summary of the method: as §1

[3] = compound: CCN1C(=O)C2=CC(=C(N=C2N(C1=O)C3CC3)N)C(=O)N + CS(=O)(=O)CCNCc1ccc(-c2ccc3ncnc(Nc4ccc(OCc5cccc(F)c5)c(Cl)c4)c3c2)o1 [Lapatinib] (partner 2 µM)
Summary of the method: as §1

[4] = compound: CCN1C(=O)C2=CC(=C(N=C2N(C1=O)C3CC3)N)C(=O)N
Summary of the method: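 Viability is treated-well nuclei as a fraction of vehicle-well nuclei, reported as the median across plates. Before counting, lung cancer cell lines were kept overnight at 37 °C in 1536-well plates, pinned with five √10-spaced library-drug doses on vehicle-anchored plates, and left 5 days without medium change, then fixed, permeabilised and Hoechst-stained in one step, imaged at 4× and counted by MetaXpress. A plate passed only if control CV was below 25% and at least one doubling occurred.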

[5] = compound: CCN1C(=O)C2=CC(=C(N=C2N(C1=O)C3CC3)N)C(=O)N + NC(=O)Nc1cc(-c2cccc(F)c2)sc1C(=O)N[C@H]1CCCNC1 [AZD7762] (partner 0.2 µM)
Summary of the method: as §1

| Cell Line | relative viability ([1]; first compound 0.253 µM) | relative viability ([1]; first compound 0.8 µM) | relative viability ([1]; first compound 2.53 µM) | relative viability ([1]; first compound 8 µM) | relative viability ([2]; first compound 0.253 µM) | relative viability ([2]; first compound 0.8 µM) | relative viability ([2]; first compound 2.53 µM) | relative viability ([2]; first compound 8 µM) | relative viability ([3]; first compound 0.253 µM) | relative viability ([3]; first compound 0.8 µM) | relative viability ([3]; first compound 2.53 µM) | relative viability ([3]; first compound 8 µM) | relative viability ([4]; 0.253 µM) | relative viability ([4]; 0.8 µM) | relative viability ([4]; 2.53 µM) | relative viability ([4]; 8 µM) | relative viability ([5]; first compound 0.253 µM) | relative viability ([5]; first compound 2.53 µM) | relative viability ([5]; first compound 8 µM) | relative viability ([5]; first compound 0.8 µM) |
| --- | --- | --- | --- | --- | --- | --- | --- | --- | --- | --- | --- | --- | --- | --- | --- | --- | --- | --- | --- | --- |
| NCI-H2009 | 0.274 | 0.271 | 0.262 | 0.281 | 0.732 | 0.647 | 0.62 | 0.663 | 0.93 | 1.23 | 0.892 | 0.847 | 1.02 | 1 | 0.946 | 0.923 |  |  |  |  |
| UMC-11 | 0.798 | 0.701 | 0.695 | 0.636 | 0.415 | 0.34 | 0.373 | 0.408 | 1.12 | 0.909 | 1 | 0.9 | 0.946 | 0.935 | 0.951 | 0.969 |  |  |  |  |
| ABC-1 |  |  |  |  | 1.11 |  | 1.81 | 1.11 | 1.08 | 1.4 | 0.969 | 1.29 | 0.986 | 0.686 | 1 | 0.841 | 0.479 | 1.15 | 0.954 |  |
| NCI-H1703 |  |  |  |  |  |  |  |  | 1.01 | 0.946 | 1.09 | 1.43 | 0.953 | 0.871 | 0.886 | 1.07 | 0.13 | 0.164 | 0.137 | 0.126 |
| COR-L 105 | 0.478 | 0.428 | 0.378 | 0.47 | 0.902 | 0.779 | 0.688 | 0.819 | 0.308 | 0.339 | 0.424 | 0.398 | 0.979 | 0.841 | 0.875 | 0.963 |  |  |  |  |
| NCI-H1650 | 0.572 | 0.571 | 0.563 | 0.611 | 0.562 | 0.614 | 0.494 | 0.622 | 0.337 | 0.815 | 0.746 | 0.904 | 0.937 | 0.932 | 0.901 | 0.877 |  |  |  |  |
| SK-LU-1 | 0.482 | 0.555 | 0.516 | 0.489 | 0.699 | 0.755 | 0.773 | 0.876 | 0.879 | 0.879 | 0.897 | 1.04 | 1.05 | 1.07 | 1.06 | 1.06 |  |  |  |  |
| LCLC-103H | 0.741 | 0.663 | 0.705 | 0.662 | 0.798 | 0.806 | 0.761 | 0.817 |  |  |  |  | 1.02 | 0.928 | 0.924 | 0.999 | 0.76 | 0.768 | 0.838 | 0.83 |
| NCI-H2342 | 0.795 | 0.8 | 0.756 | 0.857 | 0.719 | 0.812 | 0.817 | 0.645 |  |  |  |  | 1.04 | 0.821 | 0.907 | 0.948 | 0.527 | 0.514 | 0.503 | 0.426 |
| NCI-H520 | 0.65 | 0.692 | 0.657 | 0.676 | 0.719 | 0.655 | 0.717 | 0.817 | 0.898 | 0.907 | 0.957 | 0.941 | 0.985 | 1.02 | 0.972 | 0.904 |  |  |  |  |
| SW 900 | 0.81 | 0.864 | 0.75 | 0.641 | 0.434 | 0.582 | 0.524 | 0.538 |  |  |  |  | 0.672 | 0.717 | 0.785 | 0.786 | 0.601 | 0.635 | 0.633 | 0.643 |
| NCI-H522 | 0.712 | 0.797 | 0.792 | 0.709 | 0.924 | 0.81 | 0.924 | 1.01 |  |  |  |  | 0.876 | 0.985 | 0.983 | 0.906 | 0.726 | 0.952 | 0.922 | 0.735 |
| NCI-H2023 | 0.587 | 0.61 | 0.503 | 0.589 | 0.628 | 0.58 | 0.68 | 0.712 | 0.51 | 0.813 | 0.777 | 0.776 | 0.937 | 0.901 | 0.836 | 0.896 |  |  |  |  |
| NCI-H661 | 0.591 | 0.567 | 0.546 | 0.561 | 0.758 | 0.788 | 0.748 | 0.803 | 0.526 | 0.631 | 0.428 | 0.5 | 1.03 | 0.991 | 0.972 | 0.961 |  |  |  |  |
| NCI-H441 | 0.508 | 0.441 | 0.516 | 0.532 | 0.83 | 0.851 | 0.994 | 0.906 |  |  |  |  | 1.1 | 1.04 | 0.965 | 1.03 | 0.892 | 1.2 | 1.1 | 1.29 |
| NCI-H2228 | 0.37 | 0.597 | 0.359 | 0.594 | 0.933 | 0.572 | 0.676 | 0.679 | 0.893 | 1.1 | 1.26 | 1.26 | 0.99 | 1.01 | 0.902 | 0.965 |  |  |  |  |
| SW 1573 | 0.548 | 0.601 | 0.599 | 0.52 | 0.824 | 0.848 | 0.624 | 0.682 | 1.03 | 1.02 | 1.23 | 0.985 | 0.937 | 1.07 | 0.959 | 0.978 |  |  |  |  |
| NCI-H1792 | 0.457 | 0.332 | 0.346 | 0.39 |  |  |  |  | 0.993 | 0.859 | 1.1 | 0.769 | 0.763 | 0.786 | 1.08 | 0.832 | 0.779 | 0.693 | 0.508 | 0.624 |
| IA-LM |  |  |  |  | 0.983 | 0.873 | 0.905 | 1.1 | 0.877 | 0.902 | 0.88 | 0.747 | 0.952 | 0.75 | 0.877 | 0.825 |  |  |  |  |
| NCI-H1563 |  |  |  |  |  |  |  |  | 0.808 | 0.91 | 0.95 | 0.885 | 0.975 | 1 | 0.955 | 0.929 |  |  |  |  |

Source: the supplement of paper PMC10307832
